The subject of this assay is MSSA strains. In words: Checkerboard assay: pp296 or CF-301 with oxacillin. In kind it is cell-based, Staphylococcus aureus. The conditions noted are these: for MIC: Staphylococcus aureus, read-out: Single agent MICs; for FIC / MIC in combination: pp296 + oxacillin; for MIC in combination: unit assumed; for ΣFICmin: with oxacillin. An excerpt:
In some embodiments, the present modified lysin polypeptides reduce the minimum inhibitory concentration (MIC) of an antibiotic. Any known method to assess MIC may be used. In some embodiments, a checkerboard assay is used to determine the effect of a lysin on antibiotic concentration. The checkerboard assay is based on a modification of the CLSI method for MIC determination by broth microdilution (See Clinical and Laboratory Standards Institute (CLSI), CLSI. 2015. Methods for Dilution Antimicrobial Susceptibility Tests for Bacteria That Grow Aerobically; Approved Standard-10th Edition. Clinical and Laboratory Standards Institute, Wayne, Pa., which is herein incorporated by reference in its entirety and Ceri et al. 1999. J. Clin. Microbiol. 37: 1771-1776, which is also herein incorporated by reference in its entirety).
Checkerboards are constructed by first preparing columns of e.g., a 96-well polypropylene microtiter plate, wherein each well has the same amount of antibiotic diluted 2-fold along the horizontal axis. […] The lysin and antibiotic dilutions are then combined, so that each column has a constant amount of antibiotic and doubling dilutions of lysin, while each row has a constant amount of lysin and doubling dilutions of antibiotic. Each well thus has a unique combination of lysin and antibiotic. Bacteria are added to the drug combinations at a given concentration. […] Summation fractional inhibitory concentrations (ΣFICs) are calculated for each drug and the minimum ΣFIC value (ΣFICmin) is used to determine the effect of the lysin/antibiotic combination.
The ability of CF-301 or a modified lysin polypeptide pp296 to synergize with oxacillin was assessed using a checkerboard analysis. For the checkerboard assay, a total of 50 μl of Mueller-Hinton broth is distributed into each well of microdilution plates. Then, a first antibiotic of a combination is serially diluted along the ordinate, while a second drug is diluted along the abscissa. An inoculum equal to a 0.5 McFarland turbidity standard is prepared from each bacterial isolate in Mueller-Hinton broth. Each microtiter well is then inoculated with 100 μl of a bacterial inoculum of 5×10^5 CFU/ml, and the plates are incubated at 37° C. for 18 h under aerobic conditions. The resulting checkerboard contains each combination of two antibiotics, with wells that contain the highest concentration of each antibiotic at opposite corners. […] To quantify the interactions between the antibiotics being tested, the FIC index (the combination of antibiotics that produced the greatest change from the individual antibiotic's MIC) value is calculated for each strain and antibiotic combination as follows:
(A/MICA)+(B/MICB)=FICA+FICB=FIC index,
where A and B are the MIC of each agent in combination in a single well, and MICA and MICB are the MIC of each drug when used individually. The combination is considered strongly synergistic when the FIC index is ≤0.5 and synergistic when the FIC index is >0.5-<1.

Where two headings read alike, the source gives them in different places.

As to `Cc1onc(-c2ccccc2)c1C(=O)N[C@@H]1C(=O)N2[C@@H]1SC(C)(C)[C@@H]2C(=O)O` [Oxacillin, oxacillin], the MIC is, setting by setting: (ATCC 29213 / MSSA, MSSA ATCC 29213) 0.5 µg/mL; (MSSA, MSSA JMI-6625) 1 µg/mL; (MSSA, MSSA JMI-6885) 1 µg/mL; (MSSA, MSSA JMI-6886) 1 µg/mL; (MSSA, MSSA JMI-7054) 1 µg/mL; (MSSA, MSSA JMI-7160) 1 µg/mL. The MIC amounted to 0.5 µg/mL (MSSA, MSSA JMI-38739); 0.5 µg/mL (MSSA, MSSA JMI-38986); 0.5 µg/mL (MSSA, MSSA JMI-40671); 0.5 µg/mL (MSSA, MSSA JMI-46142). Also, the FIC (MSSA ATCC 29213) worked out at 0.25; the FIC (MSSA JMI-6625) amounted to 0.25; the FIC (MSSA JMI-6885) turned out to be 0.125; the FIC (MSSA JMI-6886) stood at 0.25; the FIC (MSSA JMI-7054) turned out to be 0.25; the FIC (MSSA JMI-7160) is given as 0.25. For the same molecule, the FIC is, setting by setting: (MSSA JMI-38739) 0.25; (MSSA JMI-38986) 0.25; (MSSA JMI-40671) 0.125; (MSSA JMI-46142) 0.25. Moreover, the MIC in combination is 0.125 µg/mL (MSSA ATCC 29213); 0.25 µg/mL (MSSA JMI-6625); 0.125 µg/mL (MSSA JMI-6885); 0.25 µg/mL (MSSA JMI-6886); 0.25 µg/mL (MSSA JMI-7054); 0.25 µg/mL (MSSA JMI-7160). Also, the MIC in combination (MSSA JMI-38739) stood at 0.125 µg/mL, the MIC in combination (MSSA JMI-38986) worked out at 0.125 µg/mL, the MIC in combination (MSSA JMI-40671) amounted to 0.0625 µg/mL and the MIC in combination (MSSA JMI-46142) amounted to 0.125 µg/mL.

B1: CF-301: Lysin CF-301, comparator lysin in the oxacillin checkerboard analysis (protein)
chain: MTTVNEALNNVRAQVGSGVSVGNGECYALASWYERMISPDATVGLGAGVGWVSGAIGDTISAKNIGSSYNWQANGWTVSTSGPFKAGQIVTLGATPGNPYGHVVIVEAVDGDRLTILEQNYGGKRYPVRNYYSAASYRQQVVHYITPPGTVAQSAPNLAGSRSYRETGTMTVTVDALNVRRAPNTSGEIVAVYKRGESFDYDTVIIDVNGYVWVSYIGGSGKRNYVATGATKDGKRFGNAWGTFK
With B1, the ΣFICmin runs as follows: (MSSA ATCC 29213) 0.5; (MSSA JMI-6625) 0.375; (MSSA JMI-6885) 0.5; (MSSA JMI-6886) 0.5; (MSSA JMI-7054) 0.5; (MSSA JMI-7160) 0.5. Further, the ΣFICmin came out at 0.5 (MSSA JMI-38739), 0.375 (MSSA JMI-38986), 0.3125 (MSSA JMI-40671) and 0.375 (MSSA JMI-46142).

For the origin of these results see patent US20230277632A1, “MODIFIED PlySs2 LYSINS AND ANTIBIOTIC COMBINATIONS FOR USE AGAINST GRAM-POSITIVE BACTERIA” (ContraFect Corporation, priority 2020, published 2023).
